Measurements from paper PMC6364417, “Kinase inhibitor library screening identifies synergistic drug combinations effective in sensitive and resistant melanoma cells” (Journal of Experimental & Clinical Cancer Research : CR, 2019).

Key:
Assay in all cases: Kinase inhibitor library screening, PrestoBlue cell viability, 1 or 10 μM, 72 h
[1] = test system: IGR37-GP cells (Dabrafenib-resistant); settings: for cell viability (kinase inhibitor library screening): IGR37 GP
IGR37 cells (parental) = settings: for cell viability (kinase inhibitor library screening): IGR37 Parental
[2] = test system: IGR37-XP cells (Vemurafenib-resistant); settings: for cell viability (kinase inhibitor library screening): IGR37 XP
501Mel cells (parental) = settings: for cell viability (kinase inhibitor library screening): 501Mel Parental
Summary of the method: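 Kinase inhibitors added at two fixed concentrations; 72 h exposure; PrestoBlue readout; % viability vs untreated; n ≥ 2 per line.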

A375 cells (parental) = settings: for cell viability (kinase inhibitor library screening): A375 Parental
[3] = test system: A375-GP cells (Dabrafenib-resistant); settings: for cell viability (kinase inhibitor library screening): A375 GP
[4] = test system: 501Mel-XP cells (Vemurafenib-resistant); settings: for cell viability (kinase inhibitor library screening): 501Mel XP
[5] = test system: 501Mel-GP cells (Dabrafenib-resistant); settings: for cell viability (kinase inhibitor library screening): 501Mel GP
[6] = test system: A375-XP cells (Vemurafenib-resistant); settings: for cell viability (kinase inhibitor library screening): A375 XP

Compound | cell viability (kinase inhibitor library screening) ([1]; 1μΜ, 72 h) | cell viability (kinase inhibitor library screening) ([1]; 10μΜ, 72 h) | cell viability (kinase inhibitor library screening) (IGR37 cells (parental); 1μΜ, 72 h) | cell viability (kinase inhibitor library screening) (IGR37 cells (parental); 10μΜ, 72 h) | cell viability (kinase inhibitor library screening) ([2]; 1μΜ, 72 h) | cell viability (kinase inhibitor library screening) ([2]; 10μΜ, 72 h) | cell viability (kinase inhibitor library screening) (501Mel cells (parental); 1μΜ, 72 h) | cell viability (kinase inhibitor library screening) (501Mel cells (parental); 10μΜ, 72 h) | cell viability (kinase inhibitor library screening) (A375 cells (parental); 10μΜ, 72 h) | cell viability (kinase inhibitor library screening) (A375 cells (parental); 1μΜ, 72 h) | cell viability (kinase inhibitor library screening) ([3]; 1μΜ, 72 h) | cell viability (kinase inhibitor library screening) ([3]; 10μΜ, 72 h) | cell viability (kinase inhibitor library screening) ([4]; 1μΜ, 72 h) | cell viability (kinase inhibitor library screening) ([4]; 10μΜ, 72 h) | cell viability (kinase inhibitor library screening) ([5]; 1μΜ, 72 h) | cell viability (kinase inhibitor library screening) ([5]; 10μΜ, 72 h) | cell viability (kinase inhibitor library screening) ([6]; 1μΜ, 72 h) | cell viability (kinase inhibitor library screening) ([6]; 10μΜ, 72 h) | other results
O=C(Nc1cccc(Cl)c1)Nc1ncc(CCNc2ncnc3ccsc23)s1 [SNS-314] | 93.6% | 58.8% | 81.9% | 57.7% | 88.3% | 20.8% | 79.7% | 75.7% | 46.0% | 47.7% | 47.1% | 46.9% | 72.3% | 46.6% | 79.1% | 58.4% | 56.7% | 55.3% | 
Oc1c2ccccc2c2c3c(cccc13)N=N2 [SP600125] |  |  |  |  |  |  |  |  |  |  |  |  |  |  |  |  |  |  | viability at 1 µM ([1]; Homo sapiens, IGR-37, 72 h, read-out: cell viability, IGR37 GP, 1μΜ): 92.5%; viability at 10 µM ([1]; Homo sapiens, IGR-37, 72 h, read-out: cell viability, IGR37 GP, 10μΜ): 74.4%; viability at 1 µM (IGR37 cells (parental); Homo sapiens, IGR-37, 72 h, read-out: cell viability, IGR37 Parental, 1μΜ): 98.4%; viability at 10 µM (IGR37 cells (parental); Homo sapiens, IGR-37, 72 h, read-out: cell viability, IGR37 Parental, 10μΜ): 70.6%; viability at 1 µM ([2]; Homo sapiens, IGR-37, 72 h, read-out: cell viability, IGR37 XP, 1μΜ): 96.5%; viability at 10 µM ([2]; Homo sapiens, IGR-37, 72 h, read-out: cell viability, IGR37 XP, 10μΜ): 45.8%; viability at 1 µM (501Mel cells (parental); Homo sapiens, 72 h, read-out: cell viability, 501Mel Parental, 1μΜ): 107%; viability at 10 µM (501Mel cells (parental); Homo sapiens, 72 h, read-out: cell viability, 501Mel Parental, 10μΜ): 75.1%; viability at 1 µM (A375 cells (parental); Homo sapiens, A-375, 72 h, read-out: cell viability, A375 Parental, 1μΜ): 102%; viability at 10 µM (A375 cells (parental); Homo sapiens, A-375, 72 h, read-out: cell viability, A375 Parental, 10μΜ): 79.2%; viability at 1 µM ([3]; Homo sapiens, A-375, 72 h, read-out: cell viability, A375 GP, 1μΜ): 98.3%; viability at 10 µM ([3]; Homo sapiens, A-375, 72 h, read-out: cell viability, A375 GP, 10μΜ): 83.9%; viability at 1 µM ([4]; Homo sapiens, 72 h, read-out: cell viability, 501Mel XP, 1μΜ): 94.3%; viability at 10 µM ([4]; Homo sapiens, 72 h, read-out: cell viability, 501Mel XP, 10μΜ): 54.5%; viability at 1 µM ([5]; Homo sapiens, 72 h, read-out: cell viability, 501Mel GP, 1μΜ): 95.4%; viability at 10 µM ([5]; Homo sapiens, 72 h, read-out: cell viability, 501Mel GP, 10μΜ): 66.8%; viability at 1 µM ([6]; Homo sapiens, A-375, 72 h, read-out: cell viability, A375 XP, 1μΜ): 103%; viability at 10 µM ([6]; Homo sapiens, A-375, 72 h, read-out: cell viability, A375 XP, 10μΜ): 91.5%
Cc1[nH]c(/C=C2\C(=O)Nc3ccc(S(=O)(=O)N(C)c4cccc(Cl)c4)cc32)c(C)c1C(=O)N1CCN(C)CC1 [SU11274] | 103.1% | 37.8% | 117.2% | 13.1% | 105.9% | 19.7% | 107.1% | 12.1% | 65.8% | 112.5% | 104.3% | 46.3% | 92.2% | 0.0577% | 111.1% | 33.6% | 111.1% | 22.4% | 
CN1CCN(CCOc2cc(OC3CCOCC3)c3c(Nc4c(Cl)ccc5c4OCO5)ncnc3c2)CC1 [Saracatinib (AZD0530)] |  |  |  |  |  |  |  |  |  |  |  |  |  |  |  |  |  |  | cell viability (kinase inhibitor library screening) ([1]; 1μΜ, in %): 96.8; cell viability (kinase inhibitor library screening) ([1]; 10μΜ, in %): 77.9; cell viability (kinase inhibitor library screening) (IGR37 cells (parental); 10μΜ, in %): 96.3; cell viability (kinase inhibitor library screening) ([2]; 1μΜ, in %): 97.3; cell viability (kinase inhibitor library screening) ([2]; 10μΜ, in %): 61.7; cell viability (kinase inhibitor library screening) (501Mel cells (parental); 1μΜ, in %): 105.0; cell viability (kinase inhibitor library screening) (A375 cells (parental); 1μΜ, in %): 92.2; cell viability (kinase inhibitor library screening) (A375 cells (parental); 10μΜ, in %): 71.5; cell viability (kinase inhibitor library screening) ([3]; 1μΜ, in %): 81.5; cell viability (kinase inhibitor library screening) ([3]; 10μΜ, in %): 56.9; cell viability (kinase inhibitor library screening) ([4]; 1μΜ, in %): 95.7; cell viability (kinase inhibitor library screening) ([4]; 10μΜ, in %): 79.4; cell viability (kinase inhibitor library screening) ([5]; 1μΜ, in %): 100.5; cell viability (kinase inhibitor library screening) ([5]; 10μΜ, in %): 90.5; cell viability (kinase inhibitor library screening) ([6]; 1μΜ, in %): 92.8; cell viability (kinase inhibitor library screening) ([6]; 10μΜ, in %): 71.3
